# Entries after “also recorded” stand apart in the source; their conditions may differ.
# System: U937 AML cells
# Experiment: AML xenograft model: luciferase-expressing U937 tumor cells in NSG mice, in-vivo bioluminescent imaging
# Conditions: U937 i.v., azacitidine 7.5 mg/kg QD 5 days i.p., NAE1 SMI 120 mg/kg QD 5 days on, 2 days rest, magrolimab 250 μg QD
# Experimental: FIG. 3 illustrates that NAE1 inhibition in combination with CD47 blockade elicits robust anti-tumor efficacy in an AML xenograft model. Luciferase-expressing U937 tumor cell were transferred to NSG mice by intravenous injection. On day 5, mice were randomized into cohorts and treated with Vehicle [20% (2-Hydroxypropyl)-β-cyclodextrin], azacitidine (7.5 mg/kg QD for 5 days), or NAE1 small molecule inhibitor (120 mg/kg QD for 5 days followed by 2 days/rest) by intraperitoneal injection. Magrolimab was administered 48 hours post chemo treatment (250 μg QD for the entire study) as a single agent or in combination. Tumor growth was monitored using in-vivo bioluminescent imaging and the resulting signal was reported as total flux.
# To evaluate, if the combination of NAE1 SMI with magrolimab could increase the elimination of leukemia cells in vivo, a treatment study was conducted in mice transplanted with U937 AML cells. In addition to NAE1 SMI, azacitidine, a hypomethylating and chemotherapeutic agent indicated for AML was also included into the study, since azacitidine had previously been established to enhance elimination of AML cells when combined with magrolimab (Chao, et al., Front Oncol (2020) 9:1380). […]
row,Molecule,tumor growth / cancer remission (result in words)
1,"Nc1ncn([C@@H]2O[C@H](CO)[C@@H](O)[C@H]2O)c(=O)n1 [azacitidine, 5-azacytidine, reference compound]",did initially slow tumor growth compared to vehicle control but failed to stop cancer progression
2,"magrolimab: anti-CD47 antibody (antibody, chains of the INN, looked up, V domains shown) VH: QVQLVQSGAEVKKPGASVKVSCKASGYTFTNYNMHWVRQAPGQRLEWMGTIYPGNDDTSYNQKFKDRVTITADTSASTAYMELSSLRSEDTAVYYCARGGYRAMDYWGQGTLVTVSS VL: DIVMTQSPLSLPVTPGEPASISCRSSQSIVYSNGNTYLGWYLQKPGQSPQLLIYKVSNRFSGVPDRFSGSGSGTDFTLKISRVEAEDVGVYYCFQGSHVPYTFGQGTKLEIK",did initially slow tumor growth compared to vehicle control but failed to stop cancer progression; also recorded: modest

# From patent US20220340679A1, “CO-INHIBITION OF CD47/SIRPalpha BINDING AND NEDD8-ACTIVATING ENZYME E1 REGULATORY SUBUNIT FOR THE TREATMENT OF CANCER” (Gilead Sciences, Inc., priority 2021, published 2022)
